{"source": "patent US9561284B2", "about": "“Pharmaceutical composition containing a block copolymer bound to a boronic acid compound” (NANOCARRIER CO., LTD., priority 2011, dated 2017)", "test": "Drug efficacy test: body weight of the mice", "format": "in vivo, male nude mice (Balb nu/nu)", "procedure": "Human prostate cancer PC-3 cells were inoculated under the dorsal skin of male nude mice (Balb nu/nu, 5-week-old, CHARLES RIVER LABORATORIES JAPAN, INC.) at 3×10^6 cells per mouse. At the time when the tumor volume reached 90.7±4.5 mm^3 (mean±standard error (SE)) (on day 10 after the inoculation), the drug was administered into the tail vein. […] It should be noted that the dosage is the amount in terms of the drug for each of the groups. […] It should be noted that, when the dosage of the bortezomib aqueous solution was set to more than 1 mg/kg, toxicity due to the active pharmaceutical ingredient became remarkable and the amount of body weight loss reached a severe level (e.g., a loss of 20% or more)."}
{"smiles": "CC(C)C[C@H](NC(=O)[C@H](Cc1ccccc1)NC(=O)c1cnccn1)B(O)O", "note": "[Comparative Example 2, bortezomib]", "values": [{"measurement": "Body weight loss", "setting": "dosage of more than 1 mg/kg, toxicity became remarkable", "value": "≥ 20", "unit": "%"}, {"measurement": "Relative body weight 7 days after administration vs administration date", "setting": "tail vein, 1 mg/kg", "value": "no significant difference in mouse body weight"}]}
